Source: patent publication US20250269043A1, “TARGETED BIFUNCTIONAL DEGRADERS” (YALE UNIVERSITY, priority 2019, published 2025)

Tests used:
[1] = molecular target: asialoglycoprotein receptor on the surface of immortalized human hepatocyte HepG2 cells (human) (UniProt P07306); assay: cell-based or functional assay
[2] = molecular target: asialoglycoprotein receptor on the surface of immortalized human hepatocyte HepG2 cells (human) (UniProt P07306); assay: flow cytometry competition on HepG2 cells: ASOR against DNP-AF3 (40 nM)-mediated association of α-DNP antibody (100 nM) with ASGPR
[3] = test system: HepG2 cells; assay: DNP-AF3-mediated α-DNP antibody endocytosis by HepG2 cells (flow cytometry); type: cell-based, human; details: 40 nM DNP-AF3, 100 nM antibody; for effect of endocytic pathway inhibitors on DNP-AF3-mediated α-DNP antibody endocytosis: FIG. 106; for effect of competitive binders on DNP-AF3-mediated α-DNP antibody endocytosis: ASF 2.07 μM, AF and GalNAc 1.25 mM, FIG. 105
Description: The intracellular fluorescence of cells that were incubated at 37° C. with both fluorescently labeled α-DNP antibody and DNP-AF3 for a given amount of time was examined. Cells were then washed, removed from the plate with trypsin, and subjected to flow cytometry.
It was then determined if reagents which inhibit ternary complex formation inhibit endocytosis mediated by DNP-AF3.
Next, whether inhibitors of specific endocytic pathways inhibited α-DNP antibody endocytosis was determined (FIG. 106).

[4] = test system: HepG2 cells; assay: DNP-GN3-mediated endocytosis of fluorescently labeled α-DNP antibody by adherent HepG2 cells; type: cell-based, human; details: sodium azide and 2-deoxyglucose as combined treatment; FIG. 89
Description: It was next explored whether DNP-GN3 mediates the endocytosis of fluorescently labeled α-DNP antibody.
To explore the cellular mechanism of antibody uptake, cells were treated with chemical inhibitors of several endocytic pathways (FIG. 89).

[5] = test system: HepG2 cells; assay: MIF-GN3-mediated endocytosis of Alexa 488-labeled human MIF by HepG2 cells; details: for effect of endocytic pathway inhibitors on MIF-GN3-mediated MIF endocytosis: MIF 100 nM, MIF-GN3 200 nM, FIG. 132
Description: Human MIF protein was fluorescently labeled with Alexa 488 NHS ester, then incubated with HepG2 cells in the presence of varying levels of MIF-GN3.
The ability of MIF-GN3 to mediate MIF endocytosis over a wide range of target protein concentrations was assessed.
Next, inhibitors of various endocytic pathways were utilized to determine if MIF-GN3 mediates MIF endocytosis in a manner consistent with ASGPR (FIG. 132).

[6] = test system: α-DNP antibody; assay: In vivo depletion of α-DNP antibody from serum in mice (ELISA); details: FIG. 95
Description: FIG. 94 illustrates that serum levels of α-DNP antibody decrease more rapidly following repeated treatment with DNP-GN3. Serum antibody levels were measured using an ELISA assay. Each experimental group contained three mice. Statistical differences in experiments involving in vivo depletion of α-DNP antibody were assessed by repeated measures two-way ANOVA with Tukey's tests for post-hoc comparison of simple effects between each of the treatment groups and PBS.
Single doses of DNP-GN3 were also found to be efficacious at mediating α-DNP antibody depletion, albeit less effectively than daily dosing (FIG. 96). […] Therefore, it was concluded that DNP-GN3 is able to mediate the depletion of a monoclonal antibody from serum, and functions across a wide range of target protein concentrations and dosing regimens.
DNP-GN3 was also found to be efficacious in depleting polyclonal α-DNP antibody from serum collected from mice immunized with DNP-keyhole limpet haemocyanin (KLH) (FIG. 97). […] Thus, the small molecule DNP-GN3 is not restricted in function to only monoclonal mouse antibodies, but is also effective at removing polyclonal α-DNP antibodies from circulation in mice.

[7] = molecular target: human IgG (Alexa 488-labeled) (human); assay: cell-based or functional assay
[8] = molecular target: T1, human MIF (Homo sapiens, UniProt P14174); assay: Depletion of human MIF from cell culture supernatant (sandwich ELISA); type: cell-based; details: 24 hours; FIG. 128B
T1 sequence (P14174 2-115 limits assumed): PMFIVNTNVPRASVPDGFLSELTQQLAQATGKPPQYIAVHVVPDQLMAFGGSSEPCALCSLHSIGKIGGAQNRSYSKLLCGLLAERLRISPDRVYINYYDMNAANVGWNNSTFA
Description: The ability of bifunctional MIF-binding molecules to mediate the depletion of human MIF from cell culture was investigated. In these assays, human MIF was present at a concentration of 100 nM, and a sandwich ELISA assay was utilized to measure the concentration of human MIF remaining in the cell culture supernatant. The closely related bifunctional molecules MIF-GN3, MIF-PEG2-GN3, and MIF-PEG4-GN3 were used, as well as the structurally dissimilar molecule MIF-NVS-PEG3-GN3. […] Based on the ease of its synthesis and its efficacy in this experiment, MIF-GN3 was utilized for further studies. It was next investigated whether the MIF inhibitor 3w mediates MIF depletion from cell culture supernatant. […] When cells were treated with 3w, no depletion of exogenous MIF protein was observed after 24 hours (FIG. 128B).
Bifunctional molecules containing optimized ASGPR-binding motifs are also capable of mediating MIF depletion from cell culture supernatant (FIG. 129). The MIF-binding molecule MIF-AF1, which contains only a single ASGPR-binding sugar, was not effective at mediating depletion of MIF from supernatant at any concentration tested. It is hypothesized that this is due to the compound's low predicted affinity for ASGPR (μM range). […] At a concentration of either 200 nM or 1 μM, MIF-AF2 mediated nearly 100%/o depletion of MLF from the cell culture supernatant after 48 hours. […] In contrast to these molecules, which utilize optimized synthetic ASGPR ligands, the GalNAc-based molecule MIF-GN3 mediated only 67.0% and 56.0% removal of MIF from supernatant after 48 hours at concentrations of 1 μM and 200 nM, respectively. […] At a concentration of 40 nM (4.0 pmol of molecule), MIF-AF3 mediates the removal of 83.2% of MIF present in the cell culture supernatant, or 8.32 pmol of human MIF protein. Therefore, it was concluded that under the conditions of this experiment, MIF-AF3 mediates the depletion of 2.08 molar equivalents of MIF protein.

[9] = test system: PC3 cells; assay: PC3 human prostate cancer cell tumor model in mice; type: in vivo; details: MIF-GN3 at 10 mpk; control arms DNP-GN3 and 3w; FIG. 138
Description: The ability of MIF-GN3 to mediate the depletion of MIF in a therapeutically relevant disease model was investigated. […] An experiment was conducted to determine whether the bifunctional molecule MIF-GN3 can deplete sufficient human MIF from serum to slow PC3 tumor growth. Mice were injected with an aliquot of PC3 cells, and the size of the resultant tumors as well as the levels of human MIF in serum were monitored over five weeks. […] Five weeks after the initial PC3 cell injection, the first of the mice reached maximal tumor size ([…]) and was sacrificed (FIG. 138). […] The decrease in human MIF levels mediated by MIF-GN3 is consistent with a mechanism of action in which MIF-GN3 mediates the depletion and degradation of circulating MIF protein. While the α-MIF antibody would not necessarily be expected to decrease the levels of human MIF, it is possible that the antibody mediates MIF neutralization in a manner which masks its signal as determined by ELISA. Alternatively, the α-MIF antibody may mediate depletion or degradation of huMIF by some endocytic mechanism. Another possible explanation is that the α-MIF antibody decrease serum levels of active human MIF to such an extent at early time points that PC3 cells proliferate much more slowly, and therefore fewer cells are actively secreting human MIF.
Mice were sacrificed when their tumor volumes reached 1000 mm^3. […] At this same time point, less than 25% of the mice in any other arm had survived.

[10] = molecular target: T1, human MIF; assay: Depletion of injected recombinant human MIF from serum in mice; type: in vivo; set-up: injected into mice; details: control molecules injected along with human MIF; FIG. 136
Description: In vivo human MIF depletion experiments were undertaken to determine whether MIF-GN3 can mediate the depletion of injected recombinant human MIF from serum in mice. Mice were injected with five μg of the human MIF protein. In this experiment, one group of mice was also injected with a single 10 mpk dose of MLF-GN3 along with human MIF protein. It was observed that after four hours, the average level of human MIF in serum in the PBS-treated mice was 1.76 ng/mL (FIG. 134). In mice treated with 10 mpk MIF-GN3, however, the concentration of human MIF in serum was 0.68 ng/mL. One day after the initial injection, human MIF levels had reached background levels for both conditions. […] It was hypothesized that, due to the short half-life of human MIF in serum, investigating human MIF levels at earlier time points may be more informative.
Next, an experiment was performed to determine whether MIF-GN3 could enhance MIF clearance at time points earlier than four hours. Mice were coinjected with recombinant human MIF and 10 mpk MIF-GN3 via either i.p. or i.v. routes. For the PBS control arms, human MIF was injected with PBS. It was observed that in the absence of MIF-GN3, there was a spike in huMIF levels in circulation after 30 minutes (FIG. 135). In the presence of MIF-GN3, however, levels of MIF protein remained low at 30 minutes and no spike in its concentration was observed. By two hours, the levels of human MIF in circulation decreased to background levels.
In a further experiment, whether an inhibitor of the MIF protein (3w) is able to mediate the protein's depletion from serum was determined. A bifunctional molecule that mediates the depletion of α-DNP antibody from serum was also assayed as a negative control. Neither of these molecules was expected to mediate the formation of a ternary complex between human MIF protein and ASGPR.

Chain of asialoglycoprotein receptor on the surface of immortalized human hepatocyte HepG2 cells (human) (P07306 whole entry, chain 1 of 2): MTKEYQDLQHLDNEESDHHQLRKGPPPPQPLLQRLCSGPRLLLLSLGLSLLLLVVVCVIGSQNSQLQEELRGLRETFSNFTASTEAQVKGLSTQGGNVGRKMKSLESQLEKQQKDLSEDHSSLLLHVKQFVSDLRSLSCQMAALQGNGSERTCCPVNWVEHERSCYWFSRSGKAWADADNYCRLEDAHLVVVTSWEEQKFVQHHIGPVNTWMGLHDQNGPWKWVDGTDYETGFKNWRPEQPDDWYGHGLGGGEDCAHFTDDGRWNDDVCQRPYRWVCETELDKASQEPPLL
Chain of asialoglycoprotein receptor on the surface of immortalized human hepatocyte HepG2 cells (human) (P07307 whole entry, chain 2 of 2, further chain): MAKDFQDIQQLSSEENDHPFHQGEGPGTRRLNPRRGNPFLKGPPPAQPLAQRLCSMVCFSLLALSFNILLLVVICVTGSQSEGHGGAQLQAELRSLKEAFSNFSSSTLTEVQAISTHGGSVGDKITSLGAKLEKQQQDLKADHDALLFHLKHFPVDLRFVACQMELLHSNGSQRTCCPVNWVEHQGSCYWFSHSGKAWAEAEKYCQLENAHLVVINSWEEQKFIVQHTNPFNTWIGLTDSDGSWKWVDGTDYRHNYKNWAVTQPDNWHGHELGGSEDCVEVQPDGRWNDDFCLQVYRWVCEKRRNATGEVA

Compound | effect of endocytic pathway inhibitors on DNP-AF3-mediated α-DNP antibody endocytosis [3] | effect of endocytic pathway inhibitors on intracellular fluorescence (DNP-GN3-mediated uptake) [4] | effect of endocytic pathway inhibitors on MIF-GN3-mediated MIF endocytosis [5] | other results
asialoorosomucoid (ligand) | – | – | – | mean fluorescence of the cell population (DNP-AF3-mediated α-DNP antibody endocytosis, HepG2, flow cytometry); about 1.31e6 without inhibitor (mean fluorescence) [1]: 466000; percent decrease of ternary complex formation at 2.38 µM ASOR [2]: 70%
C=C1[C@@H](C)[C@H]2[C@H](Cc3ccccc3)NC(=O)[C@]23[C@H](OC(C)=O)/C=C/[C@@](C)(O)C(=O)[C@@H](C)C/C=C/[C@H]3[C@@H]1O [CytD] | non-significant decrease | – | – | –
CC(=O)N[C@H]1C(O)O[C@H](CO)[C@H](O)[C@@H]1O (some centres unmarked) [GalNAc, N-acetylgalactosamine] | – | – | – | effect of competitive binders on DNP-AF3-mediated α-DNP antibody endocytosis [3]: significantly decreased
N=C(N)NC(=O)c1nc(Cl)c(N)nc1N [amiloride, Amiloride] | decrease in cellular fluorescence | did not significantly decrease | did not impact cellular fluorescence significantly | –
O=CC[C@@H](O)[C@H](O)[C@H](O)CO [2-deoxyglucose] | significant decrease | significantly decreased | decreased significantly | –
O=C(CCOCC(COCCC(=O)NCCOCCOCCO)(COCCC(=O)NCCOCCOCCO)NC(=O)CNC(=O)COCCOCCOCCNc1ccc([N+](=O)[O-])cc1[N+](=O)[O-])NCCOCCOCCO [DNP-OH3] | – | – | – | antibody depletion from serum after negative control compound [6]: No accelerated antibody depletion; effect of competitive binders on DNP-AF3-mediated α-DNP antibody endocytosis [3]: decreased to near-background levels
O=c1c(-c2ccc(O)cc2)coc2cc(O)cc(O)c12 [genistein, Genistein] | did not significantly decrease | – | – | toxicity of endocytosis inhibitors to cells ([5]; HepG2 cells in the presence of MIF and MIF-GN3): toxic
C[C@@H]1[C@H](O)[C@@H](C)/C=C/C=C/CC/C=C/C=C/C=C/C=C/C(O[C@H]2O[C@H](C)[C@@H](O)[C@H](N)[C@@H]2O)CC2O[C@](O)(CC(O)C(O)CCC(O)CC(O)CC(O)CC(=O)O[C@H]1C)CC(O)C2C(=O)O (some centres unmarked) [nystatin, Nystatin] | did not significantly decrease | did not significantly decrease | did not decrease | –
FcIII-GN3 (oxidized cyclized form) (peptide) | – | – | – | uptake of Alexa 488-labeled human IgG by HepG2 cells; concentration of FcIII-GN3 giving maximal uptake [7]: 200 nM
CO/C1=C\C(C)=C\[C@@H](C)[C@@H](O)[C@@H](C)C/C(C)=C/C=C/[C@H](OC)[C@@H]([C@@H](C)[C@@H](O)[C@H](C)[C@@]2(O)C[C@@H](O)[C@H](C)[C@@H](C(C)C)O2)OC1=O [bafilomycin, Bafilomycin] | – | significantly decreased | near background levels | –
FcIII-BCN-GN3 (peptide) | – | – | – | uptake of human IgG by HepG2 cells; most effective concentration of FcIII-BCN-GN3 [7]: 1 µM
COc1ccc2c(c1)c(CC(=O)O)c(C)n2C(=O)c1ccc(Cl)cc1 [indomethacin, Indomethacin] | did not significantly decrease | – | did not decrease | –
Oc1ccc(-n2cc(-c3ccc4cc(OCCOCCN5CCOCC5)ccc4n3)nn2)cc1F [Compound 3w] | – | – | – | depletion of exogenous MIF protein from cell culture supernatant [8]: no depletion; tumor growth [9]: not found to decrease tumor growth; human MIF concentration in serum compared to the PBS control [10]: no significant decreases
